According to patent publication US12441719B2, “Inhibitors of SARM1” (Disarm Therapeutics, Inc., priority 2019, dated 2025):
Read-outs that look alike come from different tables or passages of the source.

Molecular target: T1, SARM1 (Homo sapiens, UniProt Q6SZW1)
T1 construct: AviTag […]; made in house; host or cells: NRK1-HEK293T cells, transiently transfected; the clarified sonicated lysate was used without purification
T1 sequence (Q6SZW1 with tags, fused parts or gaps): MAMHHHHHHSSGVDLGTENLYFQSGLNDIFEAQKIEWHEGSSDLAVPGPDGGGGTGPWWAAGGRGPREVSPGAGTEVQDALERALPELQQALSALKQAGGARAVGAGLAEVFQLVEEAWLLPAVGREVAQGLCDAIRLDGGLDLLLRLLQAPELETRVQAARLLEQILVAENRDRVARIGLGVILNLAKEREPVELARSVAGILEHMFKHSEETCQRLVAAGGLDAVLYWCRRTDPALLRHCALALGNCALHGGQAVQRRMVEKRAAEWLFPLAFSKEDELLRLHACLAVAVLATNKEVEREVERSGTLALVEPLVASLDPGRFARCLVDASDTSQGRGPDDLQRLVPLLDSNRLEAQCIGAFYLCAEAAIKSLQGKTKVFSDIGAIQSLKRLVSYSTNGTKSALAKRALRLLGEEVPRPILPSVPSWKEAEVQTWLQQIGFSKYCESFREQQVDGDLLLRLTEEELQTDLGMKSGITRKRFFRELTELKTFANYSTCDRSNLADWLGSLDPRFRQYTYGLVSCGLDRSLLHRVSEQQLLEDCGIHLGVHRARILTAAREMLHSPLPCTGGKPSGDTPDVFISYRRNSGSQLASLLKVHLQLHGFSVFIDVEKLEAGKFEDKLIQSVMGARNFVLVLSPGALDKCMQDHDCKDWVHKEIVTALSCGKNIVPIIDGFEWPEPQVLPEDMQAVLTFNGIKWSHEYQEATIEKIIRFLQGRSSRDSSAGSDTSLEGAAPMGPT
Experiment: ARM-SAM-TIR SARM1 IC50 assay (NADase activity, NAD+ cleavage)
Assay type: biochemical
Source text: This Example describes an assay of ARM-SAM-TTR NADase activity and use of this assay to measure the efficacy of compounds of Formula I or Formula II to block SARM1 mediated NAD+ cleavage. This assay is optimized in such a way as to characterize the efficacy of the compounds in Formula I or Formula II to inhibit SARM1 activity and to calculate an IC50 value for each compound. This assay makes use of full length SARI, which encompasses the ARM, SAM and TTR domains.
Preparation of ARM-SAM-TIR Lysate (STL)
NRK1-HEK293T cells were seeded onto 150 cm^2 plates at 20×10^6 cells per plate. The next day, the cells were transfected with 15 μg ARM-SAM-TIR expression plasmid, SEQ ID NO: 1.
The cultures were supplemented with 1 mM NR at time of transfection to minimize toxicity from ARM-SAM-TIR overexpression. Forty-eight hours after transfection, cells were harvested, pelleted by centrifugation at 1,000 rpm (Sorvall ST 16R centrifuge, Thermo Fisher), and washed once with cold PBS (0.01 M phosphate buffered saline NaCl 0.138 M; KCl 0.0027 M; pH 7.4). The cells were resuspended in PBS with protease inhibitors (cOmplete™ protease inhibitor cocktail, Roche product #11873580001) and cell lysates were prepared by sonication (Branson Sonifer 450, output=3, 20 episodes of stroke). The lysates were centrifuged (12,000×g for 10 min at 4° C.) to remove cell debris and the supernatants (containing ARM-SAM-TIR protein) were stored at −80° C. for later use in the in vitro ARM-SAM-TIR NADase assay (see below). Protein concentration was determined by the Bicinchoninic (BCA) method and used to normalize lysate concentrations.
ARM-SAM-TIR IC50 Assay of Formula I or Formula II Compounds.
The enzymatic assay was performed in a 384-well polypropylene plate in Dulbecco's PBS buffer in a final assay volume of 20 μL. ARM-SAM-TIR lysate with a final concentration of 5 μg/mL was pre-incubated with the respective compound at 1% DMSO final assay concentration over 2 h at room temperature. The reaction was initiated by addition of 5 μM final assay concentration of NAD+ as substrate. After a 2 hr room temperature incubation, the reaction was terminated with 40 μL of stop solution of 7.5% trichloroactetic acid in acetonitrile. The NAD+ and ADPR concentrations were analyzed by a RapidFire High Throughput Mass Spectrometry System (Agilent Technologies, Santa Clara, CA) using an API4000 triple quadrupole mass spectrometer (AB Sciex Framingham, MA).

[1] = ARM-SAM-TIR lysate 5 μg/mL from NRK1-HEK293T cells, 2 h pre-incubation with compound, 5 μM NAD+, 2 hr room temperature, NAD+ and ADPR by RapidFire mass spectrometry, read-out: SARM1 IC50

SMILES | IC50 [1] [µM] | IC50 [µM]
N#Cc1cc(NC2CCCCNC2=O)nc2ccc(Cl)cc12 (centres unmarked) [Example 31] | < 5 | –
N#Cc1cc(N2CCC(C(=O)NCC3CC3)CC2)nc2ccc(Br)cc12 [Example 105] | 5 to 15 | –
CO[C@H]1CCN(c2cc(C#N)c3cc(Cl)ccc3n2)C1 [Example 49] | < 5 | –
CN(C)C(=O)[C@H]1CCCN(c2cc(C#N)c3cc(Cl)ccc3n2)C1 [Example 80] | < 5 | –
N#Cc1cc(N2CCCCC2C2CC2)nc2ccc(Cl)cc12 (centres unmarked) [Example 98] | < 5 | –
CN(C)C(=O)NCCNc1cc(C#N)c2cc(Cl)ccc2n1 [Example 41] | 15 to 30 | –
N#Cc1cc(N2CCC[C@@H]2C(=O)N2CCCC2)nc2ccc(Br)cc12 [Example 146] | < 5 | –
COCCNC(=O)[C@H]1CCCN(c2cc(C#N)c3cc(Br)ccc3n2)C1 [Example 102] | < 5 | –
CO[C@@H]1CCN(c2cc(C#N)c3cc(Cl)ccc3n2)C1 [Example 48] | < 5 | –
N#Cc1cc(N2CCCCC2)nc2cc(Cl)ccc12 [Example 26] | < 5 | –
CO[C@H]1CCCN(c2cc(C#N)c3cc(Cl)ccc3n2)C1 [Example 61] | < 5 | –
N#Cc1cc(N2CCC[C@H](O)C2)nc2ccc(Cl)cc12 [Example 77] | < 5 | –
N#Cc1cc(N2CC[C@H](N)C(F)C2)nc2ccc(Br)cc12 (some centres unmarked) [Example 99] | < 5 | –
CN1CCC(Nc2cc(C#N)c3cc(Cl)ccc3n2)C1=O (centres unmarked) [Example 46] | < 5 | –
N#Cc1cc(NCc2cccc(C(N)=O)c2)nc2ccc(Cl)cc12 [Example 45] | < 5 | –
C[C@@]1(NS(C)(=O)=O)CCCN(c2cc(C#N)c3cc(Br)ccc3n2)C1 [Example 122] | < 5 | –
N#Cc1cc(N2CCC[C@H](C(=O)N3CCOCC3)C2)nc2ccc(Br)cc12 [Example 101] | < 5 | –
CNc1cc(C#N)c2cc(Cl)ccc2n1 [Example 50] | < 5 | –
Cc1cc(N2CCC(NCCO)CC2)nc2ccc(Cl)cc12 [Example 9] | > 30 | –
COc1cc(C#N)c2cc(Cl)ccc2n1 [Example 14] | < 5 | –
N#Cc1cc(NCC2CC2)nc2ccc(Cl)cc12 [Example 13] | < 5 | –
N#Cc1cc(N2CCC[C@H](NC(=O)c3cn[nH]c3)C2)nc2ccc(Br)cc12 [Example 127] | < 5 | –
N#Cc1cc(N2CCNCC2)nc2ccc(Cl)cc12 [Example 16] | – | > 30

SMILES | IC50 [1] [µM] | IC50 [µM]
N#Cc1cc(N2CCC(C(N)=O)C2)nc2ccc(Cl)cc12 (centres unmarked) [Example 67] | < 5 | –
C[C@H]1CCCCN1c1cc(C#N)c2cc(Cl)ccc2n1 [Example 83] | < 5 | –
N#Cc1cc(N2CCC(N)CC2)nc2cc(Cl)ccc12 [Example 64] | < 5 | –
N#Cc1cc(N2CCC[C@H](NC(=O)c3cnccn3)C2)nc2ccc(Br)cc12 [Example 133] | < 5 | –
C[C@@H]1CCC[C@H](C)N1c1cc(C#N)c2ccccc2n1 [Example 144] | < 5 | –
N#Cc1cc(N2CCCCC2)nc2ccc(Cl)cc12 [Example 4] | < 5 | –
Cc1cncnc1C(=O)N[C@H]1CCCN(c2cc(C#N)c3cc(Br)ccc3n2)C1 [Example 135] | < 5 | –
C[C@H]1CCCN(c2cc(C#N)c3cc(Cl)ccc3n2)C1 [Example 63] | < 5 | –
C[C@@H]1CCC[C@H](C)N1c1cc(C#N)c2cc(Cl)ccc2n1 [Example 81] | < 5 | –
CNC(=O)C1CCN(c2cc(C#N)c3cc(Cl)ccc3n2)C1 (centres unmarked) [Example 68] | 5 to 15 | –
CC(C)(C)OC(=O)NC1CCN(c2cc(C#N)c3cc(C4=CCOC4)ccc3n2)CC1 [Example 93] | < 5 | –
N#Cc1cc(N2CCC(N)CC2)nc2ccc(Cl)cc12 [Example 3] | 5 to 15 | –
CO[C@@H]1CCCN(c2cc(C#N)c3cc(Cl)ccc3n2)C1 [Example 60] | < 5 | –
N#Cc1cc(N2CCC[C@H](C(N)=O)C2)nc2ccc(Cl)cc12 [Example 78] | < 5 | –
N#Cc1cc(N2C[C@H]3C[C@@H]2CN3)nc2ccc(Cl)cc12 [Example 84] | – | 5 to 15
N#Cc1cc(N2CCCC2)nc2ccc(Cl)cc12 [Example 10] | < 5 | –
N#Cc1cc(N2CCC[C@H](NCc3ccccc3)C2)nc2ccc(Br)cc12 [Example 107] | < 5 | –
N#Cc1cc(N2CCC(N)CC2)nc2ccc(F)cc12 [Example 23] | > 30 | –
CN(CC1CC1)C(=O)C1CCN(c2cc(C#N)c3cc(Br)ccc3n2)CC1 [Example 124] | < 5 | –
CC(=O)NC1(C)CCN(c2cc(C#N)c3cc(Br)ccc3n2)CC1 [Example 114] | < 5 | –
C[C@@H]1CCCCN1c1cc(C#N)c2cc(Cl)ccc2n1 [Example 82] | < 5 | –
CC(O)CNc1cc(C#N)c2cc(Cl)ccc2n1 (centres unmarked) [Example 38] | 15 to 30 | –
CN(C)c1cc(C#N)c2cc(F)ccc2n1 [Example 25] | 5 to 15 | –

SMILES | IC50 [1] [µM] | IC50 [µM]
CS(=O)(=O)NC1CCN(c2cc(C#N)c3cc(Br)ccc3n2)CC1 [Example 117] | < 5 | –
N#Cc1cc(N2CCCC(c3ccccn3)C2)nc2ccc(Br)cc12 (centres unmarked) [Example 150] | < 5 | –
N#Cc1cc(N2CCC(NCCO)CC2)nc2ccccc12 [Example 8] | > 30 | –
N#Cc1cc(N2CCC[C@H](NC(=O)c3cncnc3)C2)nc2ccc(Br)cc12 [Example 139] | < 5 | –
COCCN(C)C(=O)C1CCN(c2cc(C#N)c3cc(Br)ccc3n2)CC1 [Example 123] | < 5 | –
N#Cc1cc(N2CCC[C@H](NC(=O)N3CCOCC3)C2)nc2ccc(Br)cc12 [Example 137] | < 5 | –
N#Cc1cc(N2CCC(O)CC2)nc2ccc(Cl)cc12 [Example 75] | < 5 | –
CC(=O)N[C@@]1(C)CCCN(c2cc(C#N)c3cc(Br)ccc3n2)C1 [Example 119] | < 5 | –
N#Cc1cc(N2CC[C@H](O)C2)nc2ccc(Cl)cc12 [Example 12] | < 5 | –
C[C@@H]1CCCN(c2cc(C#N)c3cc(Cl)ccc3n2)C1 [Example 62] | < 5 | –
CS(=O)(=O)C1CCN(c2cc(C#N)c3cc(Cl)ccc3n2)C1 (centres unmarked) [Example 47] | < 5 | –
N#Cc1cc(N)nc2ccc(Cl)cc12 [Example 70] | 15 to 30 | –
N#Cc1cc(N2CCCC[C@H]2CO)nc2ccc(Cl)cc12 [Example 95] | < 5 | –
CC1CC(CNc2cc(C#N)c3cc(Cl)ccc3n2)CCO1 (centres unmarked) [Example 36] | < 5 | –
OCCNC1CCN(c2ccc3cc(Cl)ccc3n2)CC1 [Example 2] | > 30 | –
CN(CC1CC1)C(=O)[C@H]1CCCN(c2cc(C#N)c3cc(Br)ccc3n2)C1 [Example 115] | < 5 | –
N#Cc1cc(N2CCN(c3ncc[nH]3)CC2)nc2ccc(Cl)cc12 [Example 43] | 15 to 30 | –
C[C@]1(NS(C)(=O)=O)CCCN(c2cc(C#N)c3cc(Br)ccc3n2)C1 [Example 120] | < 5 | –
N#Cc1cc(N2CCOCC2)nc2ccc(Cl)cc12 [Example 76] | < 5 | –
N#Cc1cc(N2CCC[C@H](NC(=O)N3CCS(=O)(=O)CC3)C2)nc2ccc(Br)cc12 [Example 138] | < 5 | –
COCCNC(=O)CNc1cc(C#N)c2cc(Cl)ccc2n1 [Example 29] | 15 to 30 | –
N#Cc1cc(N2CC[C@H](C(=O)N3CCCC3)C2)nc2ccc(Br)cc12 [Example 142] | < 5 | –
